Measurements: PubChem BioAssay AID2060500 (Molecular Pharmacology Branch, DTP, NCI, 2025)
Where “and” joins values, the source holds several entries; their conditions need not be identical. Equal entries are not always repeated.

Test system: 596521-263-R-J1-PDC complex spheroids, viability % of control
Assay: Anticancer human tumor 596521-263-R-J1-PDC patient-derived soft tissue sarcoma cell line growth inhibition [GQUAD]
Settings: for viability, T/C: stronger effect = lower value
Excerpt: DNA G-quadruplex Stabilizer Agents in Combinations in Complex Spheroids
A high-throughput screen of multi-cell type tumor spheroids was designed to identify active combinations of DNA G-quadruplex stabilizer agents and targeted small molecules. Complex spheroids include a stromal component modeled by human endothelial cells (HUVEC) and fibroblasts modeled by human mesenchymal stem cells (MSCs). The concentration ranges selected for each drug and investigational agent were based upon clinically achievable concentrations if the clinical Cmax of the agent was known.
Compounds. The drugs and investigational agents: pidnarulex (CX-5461; NSC782164), APTO-253 (NSC789042), BRACO-19 (NSC847499), peposertib (NSC802822), ceralasertib (NSC780249), elimusertib (NSC800525), camonsertib (NSC841442), AZD-1390 (NSC803789), olaparib (NSC753686), talazoparib (NSC767125), ART-558 (NSC835418), sotorasib (NSC818433), MRTX-1133 (NSC836407), SN-38 (NSC673596), topotecan (NSC609699), etoposide (NSC141540), doxorubicin (NSC123127), gemcitabine (NSC613327), 5-fluorouracil (NSC19893), paclitaxel (NSC125973), vemurafenib (NSC761431), panobinostat (NSC761190), R-306465 (JNJ-16241199; NSC773264), adavosertib (NSC754352), TP-3654 (NSC805149), carboplatin (NSC241240), KSQ-4279 (NSC840948), and staurosporine (NSC755774) were obtained from the National Cancer Institute (NCI) Developmental Therapeutics Program Chemical Repository (34). The FDA-approved anticancer drug set is available from the NCI Developmental Therapeutics Program. […] The stock solutions were prepared in dimethyl sulfoxide (DMSO, Sigma-Aldrich, St. Louis, MO, cat. D2650) at 800-fold the tested concentration and stored at -70 degrees C prior to their use. All drugs and investigational agents were tested over a range starting from a high concentration at or near the clinical Cmax and decreasing in half-log increments. If the clinical Cmax for an agent had not been determined, the highest concentration tested was 10 microM.
2.3 Cell Culture. All cells were maintained in an incubator at 37 degrees C and 5% CO2 with 95% humidity. The PDC lines were cultured according to standard operating procedures established by the NCI PDMR. All PDCs were thawed and cultured in Matrigel-coated flasks prepared with a working solution of 1X Ham's F-12 nutrient mix, without supplementation (Invitrogen, cat. 11765054), 100 U/mL penicillin-streptomycin (Invitrogen, cat. 15140122), and 2.5% Matrigel (Corning Inc., cat. 354248) for the first three passages. The 857933-349-R-J2-PDC line was cultured in 6C/Colon 1B media, which includes advanced DMEM/F-12 (Thermo Fisher Scientific, cat. 12634028), 10 mM HEPES (Thermo Fisher Scientific, cat. 15630080), 1X GlutaMAX supplement (Thermo Fisher Scientific, cat. 35050061), 0.1 mg/mL primocin (InvivoGen, cat. ant-pm-2), 10% defined fetal bovine serum, heat inactivated (HyClone Laboratories Inc., cat. SH30070.03HI), 50% L-WRN conditioned media (ATCC, cat. CRL-3276), 1.25 mM N-Acetyl-L-cysteine (Sigma-Aldrich, cat. A9165), 10 mM nicotinamide (Sigma-Aldrich, cat. N0636), 1X B-27 supplement (Thermo Fisher Scientific, cat. 17504044), 1X N-2 supplement (Thermo Fisher Scientific, cat. 17502048), 10 microM Y-27632 dihydrochloride (Tocris Bioscience, cat. 1254), and 50 ng/mL human EGF recombinant protein (Thermo Fisher Scientific, cat. PHG0311). The 485176-168-R4-J1-PDC line was cultured in Panc media, which includes all 6C/Colon 1B media components plus 100 ng/mL human FGF-10 (Thermo Fisher Scientific, cat. 100-26), 500 nM SB-431542 (Selleckchem, cat. S1067), and gastrin (Tocris, cat. 3006).
[…]
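Note: spheroids exposed to drugs for 7 days before viability reading.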

Q: What does the source list for CCc1c2c(nc3ccc(O)cc13)-c1cc3c(c(=O)n1C2)COC(=O)[C@]3(O)CC + Cc1[nH]c2ccc(F)cc2c1-c1nc2c3cccnc3c3ncccc3c2[nH]1?
A: IC50 (curve of first compound, second compound 0.0316 µM): 6.02 nM; IC50 (curve of first compound, second compound 0.1 µM): 7.91 nM; IC50 (curve of first compound, second compound 0.316 µM): 5.32 nM; IC50 (curve of first compound, second compound 1 µM): 8.42 nM; IC50 (curve of first compound, second compound 3.16 µM): 4.26 nM; IC50 (curve of first compound, second compound 10 µM): 8.37 nM; viability, T/C (second compound 0.0316 µM, first compound 0.000999 µM): 65.8%; viability, T/C (second compound 0.0316 µM, first compound 0.00316 µM): 54.8%; viability, T/C (second compound 0.0316 µM, first compound 0.00999 µM): 45.7%; viability, T/C (second compound 0.0316 µM, first compound 0.0316 µM): 34.3%; viability, T/C (second compound 0.0316 µM, first compound 0.0999 µM): 19.2%; viability, T/C (second compound 0.0316 µM, first compound 0.316 µM): 9.24%; viability, T/C (second compound 0.1 µM, first compound 0.000999 µM): 57.3%; viability, T/C (second compound 0.1 µM, first compound 0.00316 µM): 61.5%; viability, T/C (second compound 0.1 µM, first compound 0.00999 µM): 47.4%; viability, T/C (second compound 0.1 µM, first compound 0.0316 µM): 31.1%; viability, T/C (second compound 0.1 µM, first compound 0.0999 µM): 21.5%; viability, T/C (second compound 0.1 µM, first compound 0.316 µM): 7.09%; viability, T/C (second compound 0.316 µM, first compound 0.000999 µM): 71.4%; viability, T/C (second compound 0.316 µM, first compound 0.00316 µM): 54.4%; viability, T/C (second compound 0.316 µM, first compound 0.00999 µM): 44%; viability, T/C (second compound 0.316 µM, first compound 0.0316 µM): 30.1%; viability, T/C (second compound 0.316 µM, first compound 0.0999 µM): 16.1%; viability, T/C (second compound 0.316 µM, first compound 0.316 µM): 9.37%; viability, T/C (second compound 1 µM, first compound 0.000999 µM): 67%; viability, T/C (second compound 1 µM, first compound 0.00316 µM): 58.4%; viability, T/C (second compound 1 µM, first compound 0.00999 µM): 50.3%; viability, T/C (second compound 1 µM, first compound 0.0316 µM): 29.6%; viability, T/C (second compound 1 µM, first compound 0.0999 µM): 17.5%; viability, T/C (second compound 1 µM, first compound 0.316 µM): 7.61%; viability, T/C (second compound 3.16 µM, first compound 0.000999 µM): 61.8%; viability, T/C (second compound 3.16 µM, first compound 0.00316 µM): 52.3%; viability, T/C (second compound 3.16 µM, first compound 0.00999 µM): 42.1%; viability, T/C (second compound 3.16 µM, first compound 0.0316 µM): 31.3%; viability, T/C (second compound 3.16 µM, first compound 0.0999 µM): 18.8%; viability, T/C (second compound 3.16 µM, first compound 0.316 µM): 8.52%; viability, T/C (second compound 10 µM, first compound 0.000999 µM): 56.8%; viability, T/C (second compound 10 µM, first compound 0.00316 µM): 59.2%; viability, T/C (second compound 10 µM, first compound 0.00999 µM): 48.6%; viability, T/C (second compound 10 µM, first compound 0.0316 µM): 29.9%; viability, T/C (second compound 10 µM, first compound 0.0999 µM): 17%; viability, T/C (second compound 10 µM, first compound 0.316 µM): 8.36%

Q: With Cc1cccc(N(C)C(=O)C2C(O)CCN2c2nc(C)cc(C(F)(F)F)c2C#N)c1 (stereo unspecified) as the compound, how does the viability, T/C (compound 0.0316 µM) read?
A: 113% and 94.7% and 106%

Q: What about the viability, T/C (compound 0.1 µM) of the same compound?
A: 103% and 98.2% and 94.6%

Q: What about the viability, T/C (compound 0.316 µM) of the same compound?
A: 95.1% and 106% and 98.1%

Q: And the viability, T/C (compound 1 µM)?
A: 101% and 98.4% and 112%

Q: And the viability, T/C (compound 3.16 µM)?
A: 89.7% and 108% and 114%

Q: What about the viability, T/C (compound 10 µM) of the same compound?
A: 91.4% and 96.3% and 101%

Q: What about the IC50 (curve of compound) of the same compound?
A: > 10000 nM

Q: Which results are given for CC(C)n1c(=O)n(C)c2cnc3cc(F)c(-c4ccc(OCCCN5CCCCC5)nc4)cc3c21?
A: viability, T/C (compound 0.0316 µM): 95.5% and 105% and 103%; viability, T/C (compound 0.1 µM): 92.9% and 102% and 101%; viability, T/C (compound 0.316 µM): 82.4% and 94.7% and 101%; viability, T/C (compound 1 µM): 91.1% and 106% and 92%; viability, T/C (compound 3.16 µM): 81.2% and 87.7% and 86.1%; viability, T/C (compound 10 µM): 61.1% and 71.2% and 64.3%; IC50 (curve of compound): > 10000 nM

Q: For Cc1[nH]c2ccc(F)cc2c1-c1nc2c3cccnc3c3ncccc3c2[nH]1, which viability, T/C (compound 0.0316 µM) is on record?
A: 102% [middle of 12 runs]

Q: And the viability, T/C (compound 0.1 µM)?
A: 102% [middle of 12 runs]

Q: And the viability, T/C (compound 0.316 µM)?
A: 101% [middle of 12 runs]

Q: And the viability, T/C (compound 1 µM)?
A: 101% [middle of 12 runs]

Q: What about the viability, T/C (compound 3.16 µM) of the same compound?
A: 93.6% [middle of 12 runs]

Q: What about the viability, T/C (compound 10 µM) of the same compound?
A: 85.7% [middle of 12 runs]

Q: What about the IC50 (compound alone, run of 04/16/2024) of the same compound?
A: > 10000 nM

Q: And the IC50 (compound alone, run of 04/22/2024)?
A: > 10000 nM

Q: How did the viability, T/C (compound 0.000999 µM) turn out when CCc1c2c(nc3ccc(O)cc13)-c1cc3c(c(=O)n1C2)COC(=O)[C@]3(O)CC was run?
A: 62% and 58.6% and 64.2%

Q: And the viability, T/C (compound 0.00316 µM)?
A: 58% and 49.7% and 56.6%

Q: And the viability, T/C (compound 0.00999 µM)?
A: 51.5% and 50.8% and 46.9%

Q: What about the viability, T/C (compound 0.0316 µM) of the same compound?
A: 34.9% and 28.8% and 33.9%

Q: What about the viability, T/C (compound 0.0999 µM) of the same compound?
A: 19.2% and 15.7% and 20.2%

Q: What about the viability, T/C (compound 0.316 µM) of the same compound?
A: 6.84% and 7.73% and 9.09%

Q: What about the IC50 (curve of compound) of the same compound?
A: 10.5 nM and 6.82 nM and 6.81 nM
